Assays:
Assay type in all cases: cell-based
[1] = tested on: HPRT1 in N2a cells; assay: siRNA treatment, HPRT1 in N2a cells; conditions: target HPRT1
Procedure: (§1) Phosphorothioate 2′O methyl RNA (SCO) or anti-miR21 2′OMe RNA (with 33% LNA substitution) was mixed with CPPs at different molar ratios (1:0-1:20) in MQ water in 1/10th of the final treatment volume (i.e 50 μl). Complexes were formed for 30 min in RT and meanwhile media was replaced in 24-well plates to fresh serum free DMEM (450 μl). Thereafter, complexes were added to each well. The final concentration of SCO was kept constant at 200 nM and peptide concentration was varied or complexes were formed at a given molar ratio using 400 nM SCO and then serial diluted in water. Complexes were prepared according to manufacturers protocol when using the commercial transfection reagent Lipofectamine 2000 (Promega, USA). PepFect/siRNA complexes were essentially formed in a similar manner but using 100 nM siRNA as starting concentrations and molar ratios ranging from 20-40. Lower concentrations were generated by doing serial dilutions.

[2] = tested on: various cell types; assay: siRNA delivery in various cell types, down-regulation of gene expression; conditions: low siRNA concentrations
Procedure: as §1
siRNA transfections: Different luciferase-stable cell lines including HeLa, BHK21, and U2OS cells were seeded as in the other experiments. […] Cells were lysed and measured for luminescence 20 h later as described previously. The luminescence was normalized to protein content in each well and the RLU/mg value from untreated cells were considered as 100%. […]

[3] = tested on: CHO cells; assay: Transfection of luciferase-encoding plasmid in CHO cells; conditions: 24 h
Procedure: Formation of plasmid/CPP complexes: 0.5 μg of pGL3 luciferase expressing plasmid or pEGFP-C1 plasmid was mixed with CPPs at different charge ratios (1:1-1:4) in MQ water in 1/10th of the final treatment volume (50 μl). […] When using Lipofectamine 2000, complexes were prepared according to manufacturers protocol (Promega, USA).
Plasmid transfections: For plasmid transfection, 80 000 CHO or Jurkat cells were seeded 24 h before treatment. […] Cells were lysed and analyzed in accordance with the splice correction assay.

[4] = tested on: EGFP in CHO cells; assay: siRNA treatment, EGFP down-regulation in EGFP stable CHO cells (FACS, confocal microscopy)
Procedure: A 24-well plate with EGFP-stable CHO cells were seeded one day prior transfection. On the day of transfection, transfect the cells with PF6-siRNA complexes, molar ratios between siRNA:PF6 a) for serum free media incubations: 1:20 and 1:40 with siRNA concentrations 50 nM, 25 nM and 12.5 nM; nd 1:80 with siRNA concentrations 20 nM, 10 nM and 5 nM. b) for full media incubations: 1:20 and 1:40 with siRNA concentrations 100 nM, 50 nM and 25 nM. For control experiments the cells were transfected with EGFP siRNA using Lipofectamine (100 nM siRNA and 2.8 ul of Lipofectamine), or mock transfected without complexes or only with siRNA (to get native EGFP levels). The incubation vol. during transfections was 500 ul. Incubate the cells with the complexes in serum free media or in full media, as required, for 4 hours. Then add 1 ml of full media into each well and let the cells grow for 24 (or, alternatively, for 48 hours).
On the day of measurement, wash the cells with PBS, and detach from the wells by trypsination. Use 125 ul trypsin solution. After the cells have detached, add 500 ul full media and transfer the cells into eppendorf tubes. Centrifuge at 500×g for 10 min, remove supernatant and resuspend in 500 ul of PBS supplemented with 2% FBS (this FBS is quite important, keeps the cells in better shape when the tubes are waiting to be analyzed). Transfer the cell suspensions info FACS tubes and put them on ice. Analyze as soon as possible. Measure the cell suspensions in FACS. Gate the living cell population on FSC-SSC plot. On the FSC/FITC-A or SSC/FITC-A plot find the gates for moctransfected cells (gate/cloud for cells with native EGFP levels). Run the samples using the same gates. All the cells falling out from the cloud with native EGFP-levels and having lower EGFP levels will be counted as cells where the siRNA transfection has taken place. Present the results as % of cells transfected with siRNA. Alternatively, choose the gates in a similar way based on mock-transfected cells using FITC-A histogram graph.

[5] = siRNA concentration, CHO, target EGFP

Stearyl-AGYLLGK[KK2sa4qn4]INLKALAALAKKIL-NH2 [Pepfect 6]
70% inhibition ([1]; siRNA concentration): 25 to 50 nM | 90% inhibition ([1]; siRNA concentration): 50 to 100 nM | Compared to Lipofectamine [1]: better | RNAi, result in words [2]: almost a complete RNAi | transfection compared to Lipofectamine 2000 ([3]; CR4, serum media): twice as efficiently | transfection compared to Lipofectamine ([3]; charge ratio (CR) of 2, serum free media): one log higher | cells with lower expression of EGFP ([4]; 25 nM siRNA, molar ratio 40, FACS): 90-95% | RNAi by confocal microscopy ([4]; 50 nM siRNA, 48 h, serum free media and complete growth media): complete RNAi | cells with negligible EGFP expression ([4]; 100 nM siRNA, full serum media, 48 h after treatment, FACS): approximately 98% | Compared to Lipofectamine ([4]; CHO, target EGFP): better | RNAi after 24 h, result in words ([4]; independent on siRNA concentration, serum or serum free media, flow cytometry): almost complete RNAi | 70% inhibition [4, 5]: 10 nM | 90% inhibition [4, 5]: 20 to 25 nM | persistence of RNAi response ([4]; single siRNA treatment, optimal conditions): 4 to 5 days

From US20140140929A1, “CHEMICALLY MODIFIED CELL-PENETRATING PEPTIDES FOR IMPROVED DELIVERY OF GENE MODULATING COMPOUNDS” (priority 2008, published 2014)
